Assay results as given in patent publication US11884675B2, “Heterocyclic compounds as triggering receptor expressed on myeloid cells 2 agonists and methods of use” (AMGEN INC., priority 2020, dated 2024).

Each molecule was assayed against hTREM2 (Homo sapiens, UniProt Q9NZC2) (assay: TREM2 activity by cellular Syk phosphorylation (AlphaScreen/AlphaLISA) in TREM2/DAP12-HEK cells, used for Examples 1-305). Details: HEK293 Cells.
Type: cell-based
Parameters: expressed in transfected cells
In short: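 Single-cell-cloned HEK293 cells overexpressing TREM2 and DAP12, seeded 20 h, exposed to test articles (1% final DMSO) for 45 min at room temperature. Lysates read for phospho-Syk (Tyr525/526) vs total Syk by AlphaScreen. Signal normalised as percent of control between isotype IgG and 100 nM anti-TREM2 antibody; 4-parameter logistic fit.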

hTREM2, sequence (Q9NZC2 19-230): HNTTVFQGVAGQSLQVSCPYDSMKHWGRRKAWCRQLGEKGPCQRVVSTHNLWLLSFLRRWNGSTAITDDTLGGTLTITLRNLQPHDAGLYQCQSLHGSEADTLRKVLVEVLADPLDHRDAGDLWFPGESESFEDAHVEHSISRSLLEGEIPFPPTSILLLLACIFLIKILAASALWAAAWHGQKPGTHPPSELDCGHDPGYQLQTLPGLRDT
hTREM2, sequence (O43914 22-113 partner): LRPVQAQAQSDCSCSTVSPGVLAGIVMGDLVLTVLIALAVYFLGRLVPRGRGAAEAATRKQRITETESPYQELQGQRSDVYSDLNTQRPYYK

SMILES | EC50 [nM] | hTREM2 Emax
Cc1cc2c(-c3ccc(Cl)cc3F)nc(N3CCO[C@@H](c4cnn(C)c4)C3)cc2nc1C [Example 152, 5-(4-chloro-2-fluorophenyl)-2,3-dimethyl-7-((2S)-2-(1-methyl-1H-pyrazol-4-yl)-4-morpholinyl)-1,6-naphthyridine] | ≤ 50 | ++++ (Emax>250)
CN1Cc2c(cc(N3CCO[C@@H](c4cnn(C)c4)C3)nc2[C@H]2C[C@@H](C(F)(F)F)C2)C1=O [Example 117, 2-methyl-6-((2S)-2-(1-methyl-1H-pyrazol-4-yl)-4-morpholinyl)-4-(cis-3-(trifluoromethyl)cyclobutyl)-2,3-dihydro-1H-pyrrolo[3,4-c]pyridin-1-one] | 3000 to 100000 | –
Cc1ccc2c(-c3ccc(F)cc3F)nc(N3CCO[C@@H](c4cnn(C)c4)C3)nc2n1 [Example 91, 4-(2,4-difluorophenyl)-7-methyl-2-((2S)-2-(1-methyl-1H-pyrazol-4-yl)-4-morpholinyl)pyrido[2,3-d]pyrimidine] | 50 to 500 | +++ (Emax>150 and ≤250)
Cc1cc2c(-c3ccc(Cl)cc3F)nc([C@H]3CCO[C@@H](c4cnn(C5CC5)c4)C3)nc2nc1C (single isomer, unassigned) [Example 199] | ≤ 50 | ++++ (Emax>250)
Cc1cc2c(-c3ccc(Cl)cc3F)nc([C@@H]3CCO[C@H](c4cnn(C5CC5)c4)C3)nc2nc1C (single isomer, unassigned) [Example 198] | 50 to 500 | +++ (Emax>150 and ≤250)
CN1Cc2c(-c3ccc(Cl)cc3F)cc(N3CCO[C@H](c4cnn(C)c4)C3)nc2C1=O [Example 304, (R)-4-(4-chloro-2-fluorophenyl)-6-methyl-2-(2-(1-methyl-1H-pyrazol-4-yl)morpholino)-5,6-dihydro-7H-pyrrolo [3,4-b]pyridin-7-one] | 500 to 3000 | +++ (Emax>150 and ≤250)
Cn1cc([C@H]2CN(c3cc4ccccc4c(-c4ccc(Cl)cc4F)n3)CCO2)cn1 [Example 235, (S)-4-(1-(4-chloro-2-fluorophenyl)isoquinolin-3-yl)-2-(1-methyl-1H-pyrazol-4-yl)morpholine] | 3000 to 100000 | + (Emax>45 and ≤100)
Cc1cnc2c(n1)nc(N1CCO[C@@H](c3cnn(C4CC4)c3)C1)nc2[C@H]1C[C@@H](C(F)(F)F)C1 [Example 12, 2-((2S)-2-(1-cyclopropyl-1H-pyrazol-4-yl)-4-morpholinyl)-7-methyl-4-(cis-3-(trifluoromethyl)cyclobutyl)pteridine] | 500 to 3000 | ++ (Emax>100 and ≤150)
CN1Cc2c(cc(N3CCO[C@@H](c4cnn(C5CC5)c4)C3)nc2-c2ccc(Cl)cc2F)C1=O [Example 120, 4-(4-chloro-2-fluorophenyl)-6-((2S)-2-(1-cyclopropyl-1H-pyrazol-4-yl)-4-morpholinyl)-2-methyl-2,3-dihydro-1H-pyrrolo[3,4-c]pyridin-1-one] | 50 to 500 | ++++ (Emax>250)
Cc1nc2nc([C@H]3CCO[C@@H](c4cnn(C5CC5)c4)C3)nc(-c3ccc(C(F)(F)F)nc3)c2nc1C [Example 300, 2-((2R,4S)-2-(1-cyclopropyl-1H-pyrazol-4-yl)tetrahydro-2H-pyran-4-yl)-6,7-dimethyl-4-(6-(trifluoromethyl)pyridin-3-yl)pteridine] | 50 to 500 | +++ (Emax>150 and ≤250)
Cc1cnc2c(-c3ccc(Cl)cc3F)cc([C@@H]3CCO[C@H](c4cnn(C)c4)C3)nc2n1 [Example 271, 8-(4-chloro-2-fluorophenyl)-3-methyl-6-((2S,4R)-2-(1-methyl-1H-pyrazol-4-yl)tetrahydro-2H-pyran-4-yl)pyrido [2,3-b]pyrazine] | 3000 to 100000 | +++ (Emax>150 and ≤250)
Cc1nc2nc([C@@H]3CCO[C@H](c4cnn(C5CC5)c4)C3)nc(-c3ccc(F)cc3F)c2nc1C [Example 241, 2-((2S,4R)-2-(1-cyclopropyl-1H-pyrazol-4-yl)tetrahydro-2H-pyran-4-yl)-4-(2,4-difluorophenyl)-6,7-dimethylpteridine] | ≤ 50 | +++ (Emax>150 and ≤250)
Cc1ccc2c(-c3ccc(Cl)cc3F)nc(N3CCO[C@@H](c4cnn(C5CC5)c4)C3)nc2n1 [Example 85, 4-(4-chloro-2-fluorophenyl)-2-((2S)-2-(1-cyclopropyl-1H-pyrazol-4-yl)-4-morpholinyl)-7-methylpyrido[2,3-d]pyrimidine] | ≤ 50 | +++ (Emax>150 and ≤250)
Cc1nc2nc(N3CCO[C@@H](c4cnn(C)c4)C3)nc(C3CCC(Cl)CC3)c2nc1C (mixture of isomers) [Example 165, 4-(trans-4-chlorocyclohexyl)-6,7-dimethyl-2-((2S)-2-(1-methyl-1H-pyrazol-4-yl)-4-morpholinyl) pteridine] | ≤ 50 | +++ (Emax>150 and ≤250)
Cc1nc2nc([C@@H]3CCO[C@H](c4cnn(C5CC5)c4)C3)nc(-c3ccc(C(F)(F)F)nc3)c2nc1C [Example 301, 2-((2S,4R)-2-(1-cyclopropyl-1H-pyrazol-4-yl)tetrahydro-2H-pyran-4-yl)-6,7-dimethyl-4-(6-(trifluoromethyl)pyridin-3-yl)pteridine] | ≤ 50 | +++ (Emax>150 and ≤250)
Cc1cc([C@@H]2CN(c3nc(-c4ccc(Cl)cc4F)c4ccc(C)nc4n3)CCO2)cnn1 [Example 259, (R)-4-(4-(4-chloro-2-fluorophenyl)-7-methylpyrido[2,3-d]pyrimidin-2-yl)-2-(6-methylpyridazin-4-yl)morpholine] | ≤ 50 | ++++ (Emax>250)
Cc1cnc2c(-c3ccc(Cl)cc3F)nc(N3CCO[C@@H](c4cnn(C5CC5)c4)C3)cc2n1 [Example 76, 5-(4-chloro-2-fluorophenyl)-7-((2S)-2-(1-cyclopropyl-1H-pyrazol-4-yl)-4-morpholinyl)-2-methylpyrido[3,4-b]pyrazine] | 50 to 500 | ++++ (Emax>250)
Cc1nc2nc(N3CCO[C@@H](c4cnn(C)c4)C3)nc(C3CCC(C)(C)CC3)c2nc1C [Example 130, 4-(4,4-dimethylcyclohexyl)-6,7-dimethyl-2-((2S)-2-(1-methyl-1H-pyrazol-4-yl)-4-morpholinyl) pteridine] | ≤ 50 | + (Emax>45 and ≤100)
Cc1nc2nc(N3CCO[C@@H](c4cnn(C)c4)C3)nc(C3CCC(F)(F)CC3)c2nc1C [Example 133, 4-(4,4-difluorocyclohexyl)-6,7-dimethyl-2-((2S)-2-(1-methyl-1H-pyrazol-4-yl)-4-morpholinyl)pteridine] | ≤ 50 | +++ (Emax>150 and ≤250)
Cc1cc2c(-c3ccc(F)cc3F)nc([C@H]3CCO[C@@H](c4cnn(C)c4)C3)nc2nc1C (single isomer, unassigned) [Example 201] | ≤ 50 | +++ (Emax>150 and ≤250)
Cc1cc([C@H]2CN(c3nc(C45CC(C(F)(F)F)(C4)C5)c4ncc(C)nc4n3)CCO2)ccn1 [Example 232, (S)-4-(7-methyl-4-(3-(trifluoromethyl)bicyclo[1.1.1]pentan-1-yl)pteridin-2-yl)-2-(2-methylpyridin-4-yl) morpholine] | ≤ 50 | ++ (Emax>100 and ≤150)
Cc1cc2c(-c3ccc(Cl)cc3F)nc([C@H]3CCO[C@@H](c4cnn(C)c4)C3)nc2nc1C (single isomer, unassigned) [Example 224] | ≤ 50 | +++ (Emax>150 and ≤250)
Cc1cnc2c(-c3ccc(Cl)cc3F)nc([C@H]3CCO[C@@H](c4cnn(C5CC5)c4)C3)nc2n1 (single isomer, unassigned) [Example 170] | ≤ 50 | ++++ (Emax>250)
Cc1cc([C@@H]2C[C@H](c3nc(-c4ccc(Cl)cc4F)c4ncc(C)nc4n3)CCO2)ccn1 (single isomer, unassigned) [Example 172] | 50 to 500 | ++++ (Emax>250)
CN1Cc2c(cc(N3CCO[C@@H](c4cnn(C)c4)C3)nc2-c2ccc(Cl)cc2F)C1=O [Example 119, 4-(4-chloro-2-fluorophenyl)-2-methyl-6-((2S)-2-(1-methyl-1H-pyrazol-4-yl)-4-morpholinyl)-2,3-dihydro-1H-pyrrolo[3,4-c]pyridin-1-one] | 50 to 500 | ++ (Emax>100 and ≤150)
Cc1nc2nc([C@@H]3CCO[C@@H](c4cnn(C)c4)C3)nc([C@H]3C[C@H](C(F)(F)F)C3)c2nc1C (single isomer, unassigned) [Example 204] | 500 to 3000 | ++++ (Emax>250)
Cc1ccc2c(n1)nc(N1CCO[C@@H](c3cnn(C)c3)C1)nc2[C@H]1CC[C@@H](C(F)(F)F)CC1 [Example 142, 7-methyl-2-((2S)-2-(1-methyl-1H-pyrazol-4-yl)-4-morpholinyl)-4-(cis-4-(trifluoromethyl)cyclohexyl)pyrido [2,3-d]pyrimidine] | 3000 to 100000 | ++ (Emax>100 and ≤150)
Cc1ccc(-c2nc([C@H]3CCO[C@@H](c4cnn(C)c4)C3)cc3nc(C)c(C)nc23)c(F)c1 (single isomer, unassigned) [Example 196] | ≤ 50 | +++ (Emax>150 and ≤250)
Cc1ccc(-c2cc([C@H]3CCO[C@H](c4cnn(C)c4)C3)nc3nc(C)c(C)nc23)c(F)c1 [Example 266, 8-(2-fluoro-4-methylphenyl)-2,3-dimethyl-6-((2S,4S)-2-(1-methyl-1H-pyrazol-4-yl)tetrahydro-2H-pyran-4-yl)pyrido[2,3-b]pyrazine] | 500 to 3000 | ++++ (Emax>250)
Cn1cc([C@H]2CN(c3nc(-c4ccc(Cl)cc4F)c4ccc(Cl)nc4n3)CCO2)cn1 [Example 283, (S)-4-(7-chloro-4-(4-chloro-2-fluorophenyl)pyrido[2,3-d]pyrimidin-2-yl)-2-(1-methyl-1H-pyrazol-4-yl)morpholine] | 500 to 3000 | ++ (Emax>100 and ≤150)
